Experimental findings from PubChem BioAssay (NCI) are described below.

Test systems include SK-MEL-28 melanoma; MALME-3M melanoma; SR leukemia; MCF7 breast; NCI-H226 lung; SNB-19 CNS; PC-3 prostate; EKVX NSCLC; 786-0 renal; HS 578T breast.
Assay in all cases: inhibition of tumour cell growth, NCI panel, 48 h

Structures are written as SMILES.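 These data come from cells grown in 96-well plates and exposed to compound for 48 hours at five concentrations. GI50 marks 50% less growth. Definition used: TGI = concentration required for complete inhibition of growth.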

`O=C(CNC(=O)c1cccc2ccccc12)Nc1ccccc1Oc1cccc(O)c1`: the GI50 in the test on SK-MEL-28 melanoma is over 25 µM; in the test with MALME-3M melanoma it was 5.88 µM; in the test on SR leukemia, 1.05 µM; with MCF7 breast it was 4.51 µM; in the test with NCI-H226 lung, over 25 µM; with SNB-19 CNS it was 8.73 µM. Further, the GI50 was 7.13 µM in the test with PC-3 prostate, 8.82 µM with EKVX NSCLC, 9.93 µM with 786-0 renal and 5.79 µM with HS 578T breast. For the same compound, the TGI with SK-MEL-28 melanoma, with MALME-3M melanoma, in the test on SR leukemia, in the test on MCF7 breast, in the test with NCI-H226 lung and in the test with SNB-19 CNS was over 25 µM in each case. In addition, the TGI in the test on PC-3 prostate, with EKVX NSCLC, in the test on 786-0 renal and in the test on HS 578T breast was over 25 µM in each case.

As for `COc1nccc(-c2c(-c3ccc(F)cc3)ncn2C2CCC(O)CC2)n1` (centres undefined), the GI50 in the test with SK-MEL-28 melanoma is over 58.3 µM; with MALME-3M melanoma, over 100 µM; with SR leukemia, 43 µM; in the test on MCF7 breast, 24.9 µM; in the test with NCI-H226 lung it was over 77.8 µM; in the test on SNB-19 CNS, over 100 µM. The GI50 was over 100 µM in the test on PC-3 prostate, 78.2 µM in the test on EKVX NSCLC, over 100 µM in the test with 786-0 renal and over 100 µM in the test with HS 578T breast. In addition, the TGI with SK-MEL-28 melanoma, in the test on MALME-3M melanoma, in the test with SR leukemia, in the test on MCF7 breast, in the test with NCI-H226 lung and with SNB-19 CNS was over 100 µM throughout. Also, the TGI in the test on PC-3 prostate, in the test on EKVX NSCLC, with 786-0 renal and with HS 578T breast was over 100 µM each time.

Take `CC(=O)OCC(=O)[C@@]1(O)[C@H](C)C[C@H]2[C@@H]3C=C(C)C4=Cc5c(cnn5-c5ccc(F)cc5)C[C@]4(C)[C@H]3[C@@H](O)C[C@@]21C`: the GI50 in the test on SK-MEL-28 melanoma is 1.33 µM; with MALME-3M melanoma it was 2.36 µM; in the test with SR leukemia, 2.35 µM; with MCF7 breast, 1.89 µM; with NCI-H226 lung it was 2.23 µM; in the test on SNB-19 CNS, 2.03 µM. In addition, the GI50 in the test with PC-3 prostate was 1.8 µM; with EKVX NSCLC, 1.88 µM; in the test on 786-0 renal, 1.06 µM; in the test on HS 578T breast, 1.33 µM. Further, the TGI is 2.81 µM in the test with SK-MEL-28 melanoma; 8.98 µM with MALME-3M melanoma; 7.93 µM with SR leukemia; 6.24 µM with MCF7 breast; 9.08 µM with NCI-H226 lung; 6.27 µM in the test with SNB-19 CNS. Further, the TGI with PC-3 prostate was 5.06 µM; in the test with EKVX NSCLC, 10.4 µM; in the test with 786-0 renal, 2.55 µM; in the test with HS 578T breast, 4.05 µM.

Turning to `COc1ccc2c(c1)[nH]c(=O)c1c3cccnc3cn21`, the GI50 is 0.054 µM in the test with SK-MEL-28 melanoma; 0.0437 µM in the test with MALME-3M melanoma; 0.0271 µM in the test on SR leukemia; 0.0965 µM in the test with MCF7 breast; 0.0409 µM in the test on NCI-H226 lung; 0.0515 µM with SNB-19 CNS. Moreover, the GI50 in the test with PC-3 prostate was 0.0338 µM; with EKVX NSCLC, 1.12 µM; in the test with 786-0 renal, 0.066 µM; with HS 578T breast it was 0.0384 µM. The TGI with SK-MEL-28 melanoma was over 100 µM; in the test with MALME-3M melanoma it was 18.3 µM; in the test on SR leukemia it was 5.75 µM; in the test on MCF7 breast, 14.1 µM; in the test with NCI-H226 lung, 18.6 µM; with SNB-19 CNS, over 100 µM. The TGI was over 94.5 µM in the test with EKVX NSCLC, 15.8 µM with 786-0 renal and over 48.8 µM in the test on HS 578T breast.

Regarding `CCOC(=O)C1CCC/C1=N\N=C(N)N` (centres undefined) (tested in a mixture with another compound), the TGI with SK-MEL-28 melanoma, in the test on MALME-3M melanoma, in the test with SR leukemia, in the test with MCF7 breast, in the test on NCI-H226 lung and in the test on SNB-19 CNS was over 100 µM throughout. In addition, the TGI in the test with PC-3 prostate, in the test on EKVX NSCLC, in the test on 786-0 renal and with HS 578T breast was over 100 µM in each case.

For `N#Cc1nc(-c2cccc(Br)c2)cc(-c2ccc(Nc3nc(N4CCCCC4)nc(N4CCCCC4)n3)cc2)c1N`, the GI50 in the test on SK-MEL-28 melanoma was 1.83 µM; in the test with MALME-3M melanoma, 1.68 µM; with SR leukemia, 1.29 µM; with MCF7 breast, 1.03 µM; with NCI-H226 lung, 1.85 µM; in the test with SNB-19 CNS, 6.41 µM. Further, the GI50 is 1.94 µM with PC-3 prostate, 2.12 µM with EKVX NSCLC, 3.29 µM in the test on 786-0 renal and 2.1 µM with HS 578T breast. Besides, the TGI in the test on SK-MEL-28 melanoma was 3.89 µM; with MALME-3M melanoma, 3.1 µM; with SR leukemia it was over 100 µM; with MCF7 breast, 54.4 µM; with NCI-H226 lung, 3.94 µM; in the test with SNB-19 CNS it was over 100 µM. Moreover, the TGI in the test with PC-3 prostate is 7.11 µM; in the test on EKVX NSCLC, 5.02 µM; in the test on 786-0 renal it was over 100 µM; in the test on HS 578T breast, 5.29 µM.

In the case of `Cc1cccc2c3c(sc12)C(c1ccc(Cl)cc1)C(C#N)=C(/N=C/c1ccc(Cl)cc1)O3` (centres undefined), the GI50 in the test on SK-MEL-28 melanoma is 4.73 µM; in the test on MALME-3M melanoma, 0.595 µM; with SR leukemia, 0.36 µM; with MCF7 breast it was 0.301 µM; with NCI-H226 lung it was 0.75 µM; in the test on SNB-19 CNS, 0.457 µM. Besides, the GI50 is 0.392 µM in the test with PC-3 prostate, 0.565 µM in the test on EKVX NSCLC, 0.653 µM in the test with 786-0 renal and 0.258 µM in the test with HS 578T breast. Also, the TGI in the test on SK-MEL-28 melanoma was over 100 µM; with MALME-3M melanoma, over 100 µM; in the test with SR leukemia, over 34.9 µM; with MCF7 breast it was over 100 µM; in the test with NCI-H226 lung, over 19.7 µM; in the test with SNB-19 CNS it was 24.3 µM. Besides, the TGI in the test with PC-3 prostate was over 100 µM; in the test with EKVX NSCLC, over 100 µM; with 786-0 renal, 27.8 µM; in the test with HS 578T breast it was 2.64 µM.

Turning to `O=C(Nc1ccccc1Cl)c1cnc2ccc(C3CCNCC3)cn12`, the GI50 in the test on SK-MEL-28 melanoma was 18.4 µM; in the test with MALME-3M melanoma, 22.1 µM; in the test with SR leukemia it was 37.2 µM; in the test with MCF7 breast, over 68.9 µM; in the test with NCI-H226 lung, over 24.4 µM; in the test with SNB-19 CNS, over 87.7 µM. Also, the GI50 in the test on PC-3 prostate was 14.3 µM; in the test on EKVX NSCLC, 11.7 µM; in the test on 786-0 renal it was 3.18 µM; in the test with HS 578T breast, 0.292 µM. For the same compound, the TGI in the test on SK-MEL-28 melanoma was 43.3 µM; with MALME-3M melanoma it was over 94.5 µM; in the test with SR leukemia, over 100 µM; in the test with MCF7 breast, over 100 µM; in the test on NCI-H226 lung, over 100 µM; in the test with SNB-19 CNS, over 100 µM. Moreover, the TGI in the test with PC-3 prostate was over 100 µM; with EKVX NSCLC, over 100 µM; in the test on 786-0 renal it was over 100 µM; in the test on HS 578T breast it was 2.92 µM.

`C=C1C(=O)O[C@H]2[C@H]1CC/C(COC(=O)NCCc1ccc(OC)cc1)=C\CC[C@@]1(C)O[C@@H]21`: the GI50 was 1.99 µM in the test with SK-MEL-28 melanoma; 2.44 µM with MALME-3M melanoma; 2.07 µM in the test on SR leukemia; 1.89 µM with MCF7 breast; 4.11 µM in the test on NCI-H226 lung; 8.65 µM with SNB-19 CNS. Also, the GI50 in the test on PC-3 prostate is 8.08 µM; in the test with EKVX NSCLC it was 7.45 µM; in the test with 786-0 renal, 1.76 µM; in the test on HS 578T breast it was 13.8 µM. Further, the TGI in the test on SK-MEL-28 melanoma turned out to be 4.39 µM; in the test on MALME-3M melanoma it was 6.7 µM; in the test with SR leukemia, 7.87 µM; with MCF7 breast, 4.79 µM; in the test on NCI-H226 lung it was 16.4 µM; in the test on SNB-19 CNS it was 23.1 µM. For the same compound, the TGI was found to be 21.7 µM with PC-3 prostate, 21.5 µM in the test with EKVX NSCLC, 4.22 µM with 786-0 renal and 62.9 µM in the test on HS 578T breast.

Turning to `FC(F)(F)c1ccc2c(c1)N(CCCN1CCN(C3CC3)CC1)c1ccccc1S2`, the GI50 with SK-MEL-28 melanoma is 15.2 µM; with MALME-3M melanoma it was 14 µM; in the test on SR leukemia, 3.79 µM; in the test with MCF7 breast it was 9.53 µM; in the test on NCI-H226 lung, 10.7 µM; in the test on SNB-19 CNS, 17.1 µM. Also, the GI50 with PC-3 prostate was 5.81 µM; in the test on EKVX NSCLC it was 6.09 µM; in the test with 786-0 renal, 15.4 µM; in the test on HS 578T breast, 10.3 µM. Besides, the TGI with SK-MEL-28 melanoma worked out at 29.1 µM; with MALME-3M melanoma, 31.7 µM; with SR leukemia, 15.6 µM; in the test with MCF7 breast, 22.1 µM; with NCI-H226 lung, 23.4 µM; in the test on SNB-19 CNS, 36.2 µM. The TGI with PC-3 prostate stood at 20.2 µM; with EKVX NSCLC it was 22.2 µM; in the test with 786-0 renal, 30.3 µM; with HS 578T breast, 27.1 µM.

As for `COC(=O)Nc1ccc2ccc3c(NC(=O)OC)ccc4ccc1c2c43` (tested in a mixture with another compound), the GI50 in the test with SK-MEL-28 melanoma is 35.2 µM; with MALME-3M melanoma, 7.43 µM; in the test with SR leukemia, 2.51 µM; in the test with MCF7 breast, 27.1 µM; in the test with NCI-H226 lung, 9.2 µM; in the test on SNB-19 CNS it was 13.1 µM. The GI50 with PC-3 prostate is 6.89 µM; in the test on EKVX NSCLC it was 5.55 µM; in the test with 786-0 renal, 12.2 µM; with HS 578T breast it was 9.01 µM. The TGI was over 50 µM in the test with SK-MEL-28 melanoma; over 50 µM in the test on MALME-3M melanoma; over 50 µM in the test on SR leukemia; over 50 µM in the test with MCF7 breast; 31.3 µM in the test with NCI-H226 lung; over 50 µM in the test on SNB-19 CNS. The TGI was 26 µM in the test on PC-3 prostate, over 50 µM in the test on EKVX NSCLC, 41.2 µM in the test on 786-0 renal and 40.4 µM with HS 578T breast.
